Laboratory results reported in patent publication US10898481B2 (priority 2018, dated 2021).

Key:
[1] = biological target: hADORA1/CHO (hA1 expressing) cells (Homo sapiens (Human), UniProt P30542); test: cell-based; settings: FLIPR inhibition, 10 μM adenosine, read-out: cAMP & FLIPR IC50 (nM) hA1
Procedure: hADORA1/CHO (hA1 expressing) cells (Genscript) were plated at 1×10^4 cells/well into 384-well polystyrene plates one day before starting the experiment. On the day of experiment, the supernatant was discard and replaced with 40 μL of dye (FLIPR calcium 5 Assay Kit) per well and the plates were incubated for 60 mins at 37° C. plus 5% CO2. Then testing compounds were added at different concentrations for FLIPR™ inhibition assay. After a 400s incubation with compound, 10 μM adenosine was added into the cells, and the signal was captured by FLIPR.

hA2a/CHO = hA2a/CHO (Homo sapiens (Human), UniProt P29274); test: cAMP inhibition assay in hA2a/CHO cells, 10 μM adenosine; format: cell-based; settings: read-out: cAMP & FLIPR IC50 (nM) hA2a;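 note: compounds added to cells 30 min ahead of adenosine, then a further 30 min at 37 °C with adenosine before cAMP detection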
Sequence of hA2a/CHO (P29274 whole entry): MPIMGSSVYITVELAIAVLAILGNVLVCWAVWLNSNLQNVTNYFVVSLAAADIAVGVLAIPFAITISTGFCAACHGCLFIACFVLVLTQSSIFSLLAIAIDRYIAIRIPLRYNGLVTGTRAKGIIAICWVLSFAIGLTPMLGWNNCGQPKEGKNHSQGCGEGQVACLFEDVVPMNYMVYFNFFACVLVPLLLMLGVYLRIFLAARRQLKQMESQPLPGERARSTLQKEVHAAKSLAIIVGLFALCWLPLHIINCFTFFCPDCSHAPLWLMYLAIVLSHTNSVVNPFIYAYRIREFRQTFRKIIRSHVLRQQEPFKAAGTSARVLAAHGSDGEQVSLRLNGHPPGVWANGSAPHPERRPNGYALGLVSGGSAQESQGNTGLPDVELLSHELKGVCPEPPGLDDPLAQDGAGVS
Procedure: hA2a/CHO, hA2b/CHO, hA3/CHO and mA2a/CHO (Genscript) were plated at 5×10^3 cells/well into 384-well polystyrene plates at the day of experiment. Compounds were pre-incubated with cells for 30 min at 37° C., 5% CO2. Then 10 μM adenosine was added to the cells and incubated for 30 min at 37° C., 5% CO2. Detection reagent (CISBIO) was added and the plates were incubated for 60 min at room temperature. The signal was captured by Envision.

Sequence of hADORA1/CHO (hA1 expressing) cells (P30542 whole entry): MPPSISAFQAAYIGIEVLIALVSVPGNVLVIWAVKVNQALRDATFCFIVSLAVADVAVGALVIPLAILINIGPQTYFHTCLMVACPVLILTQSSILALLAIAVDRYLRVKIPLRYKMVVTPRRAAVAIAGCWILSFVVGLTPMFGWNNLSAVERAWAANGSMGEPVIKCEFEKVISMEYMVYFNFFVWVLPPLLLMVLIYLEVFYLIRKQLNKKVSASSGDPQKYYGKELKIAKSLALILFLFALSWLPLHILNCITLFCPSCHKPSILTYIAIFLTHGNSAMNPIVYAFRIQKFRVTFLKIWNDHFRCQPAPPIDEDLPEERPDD

Work on `Cc1cnc2ccc(-c3nc(C(=O)NCCN(C)C4CCOC4)c(N)nc3-c3ncco3)cn12` (racemic) [Cmpd. 233, rac-3-amino-N-(2-(methyl(tetrahydrofuran-3-yl)amino)ethyl)-6-(3-methylimidazo[1,2-a]pyridin-6-yl)-5-(oxazol-2-yl)pyrazine-2-carboxamide] yielded an IC50 [1] of 1910 nM and an IC50 (hA2a/CHO) of 38 nM.
Work on `Cc1cnc2ccc(-c3nc(C(=O)NCc4cccc(N5CCC(N(C)C)C5)n4)c(N)nc3-c3ncco3)cn12` (single isomer, unassigned) [Cmpd. 232, 3-amino-N-((6-(3-(dimethylamino)pyrrolidin-1-yl)pyridin-2-yl)methyl)-6-(3-methylimidazo[1,2-a]pyridin-6-yl)-5-(oxazol-2-yl)pyrazine-2-carboxamide] yielded an IC50 [1] of 1500 nM and an IC50 (hA2a/CHO) of 0.5 nM.
With `Cc1cnc2ccc(-c3nc(C(=O)NCc4cccc(N5CCC(N(C)C)C5)n4)c(N)nc3-c3ncco3)cn12` (single isomer, unassigned) [Cmpd. 235, 3-amino-N-((6-(3-(dimethylamino)pyrrolidin-1-yl)pyridin-2-yl)methyl)-6-(3-methylimidazo[1,2-a]pyridin-6-yl)-5-(oxazol-2-yl)pyrazine-2-carboxamide] the IC50 [1] was 5180 nM and the IC50 (hA2a/CHO) was 0.8 nM.
For `Cc1cnc2ccc(-c3nc(C(=O)NCC(C4CC4)N(C)C)c(N)nc3-c3ncco3)cn12` (single isomer, unassigned; isomer 1) [Example 253, 3-amino-N-(2-cyclopropyl-2-(dimethylamino)ethyl)-6-(3-methylimidazo[1,2-a]pyridin-6-yl)-5-(oxazol-2-yl) pyrazine-2-carboxamide (isomer 1)], the IC50 [1] was 8170 nM and the IC50 (hA2a/CHO) was 12 nM.
For `Cc1cnc2ccc(-c3nc(C(=O)NCC4CC(C)(C)O4)c(N)nc3-c3ncco3)cn12` (single isomer, unassigned; isomer 1) [Example 260, 3-amino-N-((4,4-dimethyloxetan-2-yl)methyl)-6-(3-methylimidazo[1,2-a]pyridin-6-yl)-5-(oxazol-2-yl)pyrazine-2-carboxamide (isomer 1)], the IC50 [1] was 30 nM and the IC50 (hA2a/CHO) was 5.9 nM.
Molecule `Cc1cnc2ccc(-c3nc(C(=O)NCC4CCCN(C)C4=O)c(N)nc3-c3ncco3)cn12` (single isomer, unassigned; isomer 1) [Example 263, 3-amino-N-((1-methyl-2-oxopiperidin-3-yl)methyl)-6-(3-methylimidazo[1,2-a]pyridin-6-yl)-5-(oxazol-2-yl) pyrazine-2-carboxamide (isomer 1)] has an IC50 [1] of 103 nM and an IC50 (hA2a/CHO) of 0.4 nM.
With `Cc1cnc2ccc(-c3nc(C(=O)NC(C)C4CCCO4)c(N)nc3-c3ncco3)cn12` (single isomer, unassigned; isomer 1) [Example 266, 3-amino-6-(3-methylimidazo[1,2-a]pyridin-6-yl)-5-(oxazol-2-yl)-N-(1-(tetrahydrofuran-2-yl)ethyl)pyrazine-2-carboxamide (isomer 1)] the IC50 [1] was > 10000 nM and the IC50 (hA2a/CHO) was 7.6 nM.
With `Cc1cnc2ccc(-c3nc(C(=O)NCC4CCN(C)C4=O)c(N)nc3-c3ccc(F)cc3)cn12` (single isomer, unassigned; isomer 1) [Example 267, 3-amino-5-(4-fluorophenyl)-N-((1-methyl-2-oxopyrrolidin-3-yl)methyl)-6-(3-methylimidazo[1,2-a]pyridin-6-yl) pyrazine-2-carboxamide (isomer 1)] the IC50 [1] was 2.8 nM and the IC50 (hA2a/CHO) was 0.9 nM.
`Cc1cnc2ccc(-c3nc(C(=O)NC[C@H]4CC(C)(C)CN4C)c(N)nc3-c3ncco3)cn12` (single isomer, unassigned; isomer 2) [Example 230, 3-amino-6-(3-methylimidazo[1,2-a]pyridin-6-yl)-5-(oxazol-2-yl)-N-((1,4,4-trimethylpyrrolidin-2-yl)methyl) pyrazine-2-carboxamide (isomer 2)] was tested, and the IC50 [1] was 6000 nM and the IC50 (hA2a/CHO) was 15 nM.
Work on `Cc1cnc2ccc(-c3nc(C(=O)NCC4CCCN(C)C4=O)c(N)nc3-c3ncco3)cn12` (single isomer, unassigned; isomer 2) [Example 254, 3-amino-N-((1-methyl-2-oxopiperidin-3-yl)methyl)-6-(3-methylimidazo[1,2-a]pyridin-6-yl)-5-(oxazol-2-yl) pyrazine-2-carboxamide (isomer 2)] yielded an IC50 [1] of 99 nM and an IC50 (hA2a/CHO) of 0.7 nM.
With `Cc1cnc2ccc(-c3nc(C(=O)NCC4CCN(C)C4=O)c(N)nc3-c3ccc(F)cc3)cn12` (single isomer, unassigned; isomer 2) [Example 256, 3-amino-5-(4-fluorophenyl)-N-((1-methyl-2-oxopyrrolidin-3-yl)methyl)-6-(3-methylimidazo[1,2-a]pyridin-6-yl) pyrazine-2-carboxamide (isomer 2)] the IC50 [1] was 34 nM and the IC50 (hA2a/CHO) was 1.8 nM.
`Cc1cnc2ccc(-c3nc(C(=O)NC(C)C4CCCO4)c(N)nc3-c3ncco3)cn12` (single isomer, unassigned; isomer 2) [Example 262, 3-amino-6-(3-methylimidazo[1,2-a]pyridin-6-yl)-5-(oxazol-2-yl)-N-(1-(tetrahydrofuran-2-yl)ethyl)pyrazine-2-carboxamide (isomer 2)] gave an IC50 [1] of 11600 nM and an IC50 (hA2a/CHO) of 12 nM.
For `Cc1cnc2ccc(-c3nc(C(=O)NCC(C4CC4)N(C)C)c(N)nc3-c3ncco3)cn12` (single isomer, unassigned; isomer 2) [Example 269, 3-amino-N-(2-cyclopropyl-2-(dimethylamino)ethyl)-6-(3-methylimidazo[1,2-a]pyridin-6-yl)-5-(oxazol-2-yl) pyrazine-2-carboxamide (isomer 2)], the IC50 [1] was > 10000 nM and the IC50 (hA2a/CHO) was 37 nM.
`Cc1cnc2ccc(-c3nc(C(=O)NCC4CC(C)(C)O4)c(N)nc3-c3ncco3)cn12` (single isomer, unassigned; isomer 2) [Example 270, 3-amino-N-((4,4-dimethyloxetan-2-yl)methyl)-6-(3-methylimidazo[1,2-a]pyridin-6-yl)-5-(oxazol-2-yl)pyrazine-2-carboxamide (isomer 2)] was tested, and the IC50 [1] was 300 nM and the IC50 (hA2a/CHO) was 7.4 nM.
Molecule `Cc1cnc2ccc(-c3nc(C(=O)NC(C)C4CCCO4)c(N)nc3-c3ncco3)cn12` (single isomer, unassigned; isomer 3) [Example 274, 3-amino-6-(3-methylimidazo[1,2-a]pyridin-6-yl)-5-(oxazol-2-yl)-N-(1-(tetrahydrofuran-2-yl)ethyl)pyrazine-2-carboxamide (isomer 3)] has an IC50 [1] of 275 nM and an IC50 (hA2a/CHO) of 0.9 nM.
For `NCc1cnc2ccc(-c3nc(C(=O)NCc4ncccc4F)c(N)nc3-c3ncco3)cn12` [Cmpd. 198, 3-amino-6-(3-(aminomethyl)imidazo[1,2-a]pyridin-6-yl)-N-((3-fluoropyridin-2-yl)methyl)-5-(oxazol-2-yl)pyrazine-2-carboxamide], the IC50 [1] was > 10000 nM.
With `Cc1cnc2ccc(-c3nc(C(=O)NCc4ncccc4F)c(N)nc3N3CCOCC3)cn12` [Cmpd. 223, 3-amino-N-[(3-fluoropyridin-2-yl)methyl]-6-[3-methylimidazo[1,2-a]pyridin-6-yl]-5-(morpholin-4-yl)pyrazine-2-carboxamide] the IC50 [1] was > 10000 nM.
`Cc1cnc2ccc(-c3nc(CNC(=O)[C@H]4CCCN4C)c(N)nc3-c3cc(F)cc(F)c3)cn12` [Example 291, (2R)—N-[[3-amino-5-(3,5-difluorophenyl)-6-[3-methylimidazo[1,2-a]pyridin-6-yl]pyrazin-2-yl]methyl]-1-methylpyrrolidine-2-carboxamide] gave an IC50 (hA2a/CHO) of 1.1 nM.
Work on `Cc1cnc2ccc(-c3nc(C(=O)N[C@@H](C)Cn4ccnn4)c(N)nc3-c3ncco3)cn12` [Example 296, (S)-N-(1-(lH-1,2,3-triazol-1-yl)propan-2-yl)-3-amino-6-(3-methylimidazo[1,2-a]pyridin-6-yl)-5-(oxazol-2-yl) pyrazine-2-carboxamide] yielded an IC50 (hA2a/CHO) of 0.9 nM.
`Cc1cnc2ccc(-c3nc(C(=O)N[C@@H](C)Cn4nccn4)c(N)nc3-c3ncco3)cn12` [Example 297, 3-amino-6-[3-methylimidazo[1,2-a]pyridin-6-yl]-5-(1,3-oxazol-2-yl)-N-[(2S)-1-(2H-1,2,3-triazol-2-yl)propan-2-yl]pyrazine-2-carboxamide] was tested, and the IC50 (hA2a/CHO) was 0.2 nM.
`Cc1cnc2ccc(-c3nc(C(=O)N[C@H](C)Cn4nccn4)c(N)nc3-c3ncco3)cn12` [Example 298, 3-amino-6-[3-methylimidazo[1,2-a]pyridin-6-yl]-5-(1,3-oxazol-2-yl)-N-[(2R)-1-(2H-1,2,3-triazol-2-yl)propan-2-yl]pyrazine-2-carboxamide] was tested, and the IC50 (hA2a/CHO) was 47 nM.
Work on `COCCCNC(=O)c1nc(-c2ccc3ncc(C)n3c2)c(-n2nccn2)nc1N` [Example 299, 3-amino-N-(3-methoxypropyl)-6-(3-methylimidazo[1,2-a]pyridin-6-yl)-5-(2H-1,2,3-triazol-2-yl)pyrazine-2-carboxamide] yielded an IC50 (hA2a/CHO) of 4.9 nM.
In the case of `Cc1cnc2ccc(-c3nc(C(=O)NCc4ncccc4OCCO)c(N)nc3-c3ncco3)cn12` [Example 300, 3-amino-N-((3-(2-hydroxyethoxy)pyridin-2-yl)methyl)-6-(3-methylimidazo [1,2-a]pyridin-6-yl)-5-(oxazol-2-yl) pyrazine-2-carboxamide], the IC50 (hA2a/CHO) is reported as 0.8 nM.
Work on `CNCCOc1cccnc1CNC(=O)c1nc(-c2ccc3ncc(C)n3c2)c(-c2ncco2)nc1N` [Example 301, 3-amino-N-([3-[2-(methylamino)ethoxy]pyridin-2-yl]methyl)-6-[3-methylimidazo[1,2-a]pyridin-6-yl]-5-(1,3-oxazol-2-yl)pyrazine-2-carboxamide] yielded an IC50 (hA2a/CHO) of 3 nM.
With `Cc1cnc2ccc(-c3nc(C(=O)NCc4cccc(N5CCC(N(C)C)CC5)n4)c(N)nc3-c3ncco3)cn12` [Example 302, 3-amino-N-((6-(4-(dimethylamino)piperidin-1-yl)pyridin-2-yl)methyl)-6-(3-methylimidazo[1,2-a]pyridin-6-yl)-5-(oxazol-2-yl)pyrazine-2-carboxamide] the IC50 (hA2a/CHO) was 2.4 nM.
`CNC1CN(c2cccc(CNC(=O)c3nc(-c4ccc5ncc(C)n5c4)c(-c4ncco4)nc3N)n2)C1` [Example 303, 3-amino-N-((6-(3-(methylamino)azetidin-1-yl)pyridin-2-yl)methyl)-6-(3-methylimidazo[1,2-a]pyridin-6-yl)-5-(oxazol-2-yl)pyrazine-2-carboxamide] showed an IC50 (hA2a/CHO) of 0.4 nM.
